The numbers were not newly measured in patent US9974861B2, “Peptide slow-release formulations” (CAMURUS AB, priority 2007, dated 2018), which cites them from elsewhere.

`C[C@@H](O)[C@@H]1NC(=O)[C@H](CCCCN)NC(=O)[C@@H](Cc2c[nH]c3ccccc23)NC(=O)[C@H](Cc2ccccc2)NC(=O)[C@@H](NC(=O)[C@H](N)Cc2ccccc2)CSSC[C@@H](C(=O)N[C@H](CO)[C@@H](C)O)NC1=O` [Octreotide, D-Phe-Cys-Phe-D-Trp-Lys-Thr-Cys-Thr-ol (2-7 disulphide bridge)]: the Terminal half-life entry (in vivo) is listed as “around 1.7 hours”. For the same compound, in the data set with SSTRs (SSTR1-SSTR5), the “Selectivity for SSTR2 and SSTR5” value is on record as “high selectivity”.

For “Ala-Gly-Cys-Lys-Asn-Phe-Phe-Trp-Lys-Thr-Phe-Thr-Ser-Cys [SST-14]”, the Biological half-life (natural hormone) is on record as 1-3 minutes. Also, in the data set with SSTRs (SSTR1-SSTR5) (five known types of SSTRs), the “Affinity of SSTR1-SSTR5” value was “equally high affinity”.
